This is an account of results in the supplement of paper PMC10307832.

Test in all cases: relative viability (nuclei count vs DMSO), 5 days (fraction); higher = more cells survive
Compound in assay [1]: C1=CC2=C(C=C(C(=C2N=C1)O)N=NC3=CC4=C(C=C3)C=C(C=C4)S(=O)(=O)O)S(=O)(=O)O
Summed up: (§1)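 Nuclei counted with MetaXpress define viability as the ratio of treated to vehicle wells, given as a median across plates. The lung cancer cell lines were in 1536-well plates, pinned with five √10-spaced library-drug doses and imaged at 4× after 5 days and Hoechst staining. Plates passed with control CV below 25% and at least one doubling.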

Compound in a further assay: O=C(NC1CCNCC1)c1n[nH]cc1NC(=O)c1c(Cl)cccc1Cl [AT-7519]
Summed up:
as §1

Compound in assay [2]: C1=CC2=C(C=C(C(=C2N=C1)O)N=NC3=CC4=C(C=C3)C=C(C=C4)S(=O)(=O)O)S(=O)(=O)O + Cc1nc(NC(=O)N2CCC[C@H]2C(N)=O)sc1-c1ccnc(C(C)(C)C(F)(F)F)c1 [Alpelisib] (partner 2 µM)
The procedure, abridged: (§2)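 Medians of duplicate plates are given as relative viability. That measure is the nuclei count in treated wells divided by the count in vehicle wells. Counts were taken on 4× images of lung cancer cell lines in 1536-well plates, 5 days after pin-tool dosing the day after seeding with one drug alone or a fixed anchor-drug dose plus five library-drug doses (not always all listed) in √10 steps.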

Compound in the assay “AT-7519 + Pemetrexed”: O=C(NC1CCNCC1)c1n[nH]cc1NC(=O)c1c(Cl)cccc1Cl [AT-7519] + Nc1nc2[nH]cc(CCc3ccc(C(=O)N[C@@H](CCC(=O)O)C(=O)O)cc3)c2c(=O)[nH]1 [Pemetrexed] (partner 0.2 µM)
The procedure, abridged: as §2

In the case of HCC-366, the relative viability in assay [1] (0.08 µM) came out at 1.04; in assay [1] (0.253 µM), 0.964; in assay [1] (0.8 µM), 0.993; in assay [1] (2.53 µM), 0.997; in assay [1] (8 µM), 0.897; with AT-7519 (0.01 µM), 1.06. Also, the relative viability with AT-7519 (0.03162 µM) stood at 1.03; with AT-7519 (0.3162 µM), 0.993; with AT-7519 (1 µM), 0.926; in assay [2] (first compound 0.08 µM), 0.386; in assay [2] (first compound 0.253 µM), 0.344; in assay [2] (first compound 0.8 µM), 0.389. Besides, the relative viability stood at 0.401 in assay [2] (first compound 2.53 µM); 0.439 in assay [2] (first compound 8 µM); 0.178 in the assay with AT-7519 + Pemetrexed (first compound 0.01 µM); 0.162 in the assay with AT-7519 + Pemetrexed (first compound 0.03162 µM); 0.185 with AT-7519 + Pemetrexed (first compound 0.3162 µM); 0.216 with AT-7519 + Pemetrexed (first compound 1 µM).
HCC-827: the relative viability in assay [1] (0.08 µM) is 1.08; in assay [1] (0.253 µM) it was 0.997; in assay [1] (0.8 µM) it was 1.01; in assay [1] (2.53 µM), 1.02; in assay [1] (8 µM), 1.04; with AT-7519 (0.01 µM), 1.04. For the same cell line, the relative viability in the assay with AT-7519 (0.03162 µM) came out at 1.04; with AT-7519 (0.3162 µM), 1.02; with AT-7519 (1 µM), 0.997; in assay [2] (first compound 0.08 µM), 1.05; in assay [2] (first compound 0.253 µM), 0.989; in assay [2] (first compound 0.8 µM) it was 0.807. Moreover, the relative viability in assay [2] (first compound 2.53 µM) turned out to be 0.978; in assay [2] (first compound 8 µM), 1.05; with AT-7519 + Pemetrexed (first compound 0.01 µM) it was 0.301; with AT-7519 + Pemetrexed (first compound 0.03162 µM), 0.247; with AT-7519 + Pemetrexed (first compound 0.3162 µM), 0.276; with AT-7519 + Pemetrexed (first compound 1 µM), 0.243.
For the cell line HOP-62, the relative viability in assay [1] (0.08 µM) stood at 1.06; in assay [1] (0.253 µM) it was 0.931; in assay [1] (0.8 µM) it was 0.964; in assay [1] (2.53 µM), 1.03; in assay [1] (8 µM), 1.04; with AT-7519 (0.01 µM), 0.949. The relative viability was 0.949 with AT-7519 (0.03162 µM); 1.04 in the assay with AT-7519 (0.3162 µM); 1.04 with AT-7519 (1 µM); 1.27 in assay [2] (first compound 0.08 µM); 1.14 in assay [2] (first compound 0.253 µM); 1.19 in assay [2] (first compound 0.8 µM). In addition, the relative viability was found to be 0.817 in assay [2] (first compound 2.53 µM); 0.704 in assay [2] (first compound 8 µM); 0.359 in the assay with AT-7519 + Pemetrexed (first compound 0.01 µM); 0.335 with AT-7519 + Pemetrexed (first compound 0.03162 µM); 0.302 with AT-7519 + Pemetrexed (first compound 0.3162 µM); 0.328 with AT-7519 + Pemetrexed (first compound 1 µM).
Regarding LC-2-ad, the relative viability in assay [1] (0.08 µM) turned out to be 1.02; in assay [1] (0.253 µM), 0.902; in assay [1] (0.8 µM), 0.978; in assay [1] (2.53 µM), 0.995; in assay [1] (8 µM), 0.945; with AT-7519 (0.01 µM) it was 0.996. Further, the relative viability with AT-7519 (0.03162 µM) was found to be 0.99; in the assay with AT-7519 (0.3162 µM), 1.01; with AT-7519 (1 µM), 0.909; in assay [2] (first compound 0.08 µM) it was 0.619; in assay [2] (first compound 0.253 µM) it was 0.783; in assay [2] (first compound 0.8 µM), 0.828. Moreover, the relative viability was 0.857 in assay [2] (first compound 2.53 µM); 0.98 in assay [2] (first compound 8 µM); 0.263 with AT-7519 + Pemetrexed (first compound 0.01 µM); 0.276 with AT-7519 + Pemetrexed (first compound 0.03162 µM); 0.28 with AT-7519 + Pemetrexed (first compound 0.3162 µM); 0.268 in the assay with AT-7519 + Pemetrexed (first compound 1 µM).
In the case of LCLC-97TM1, the relative viability is 1.16 in assay [1] (0.08 µM); 0.873 in assay [1] (0.253 µM); 0.833 in assay [1] (0.8 µM); 0.926 in assay [1] (2.53 µM); 0.999 in assay [1] (8 µM); 0.918 in the assay with AT-7519 (0.01 µM). The relative viability with AT-7519 (0.03162 µM) was 0.892; with AT-7519 (0.3162 µM), 0.844; with AT-7519 (1 µM), 0.47; in assay [2] (first compound 0.253 µM) it was 0.296; in assay [2] (first compound 2.53 µM) it was 0.248; in assay [2] (first compound 8 µM), 0.296. The relative viability in the assay with AT-7519 + Pemetrexed (first compound 0.01 µM) was found to be 0.182; with AT-7519 + Pemetrexed (first compound 0.03162 µM) it was 0.156; in the assay with AT-7519 + Pemetrexed (first compound 0.3162 µM), 0.152; with AT-7519 + Pemetrexed (first compound 1 µM) it was 0.165.
Consider LCLC-103H, for which the relative viability in assay [1] (0.08 µM) came to 1.02; in assay [1] (0.253 µM), 0.998; in assay [1] (0.8 µM) it was 0.976; in assay [1] (2.53 µM) it was 1.02; in assay [1] (8 µM), 1.03; in the assay with AT-7519 (0.01 µM), 1.08. The relative viability in the assay with AT-7519 (0.03162 µM) is 0.983; with AT-7519 (0.3162 µM), 1.01; in the assay with AT-7519 (1 µM), 1.07; in assay [2] (first compound 0.08 µM), 1; in assay [2] (first compound 0.253 µM), 0.948; in assay [2] (first compound 0.8 µM) it was 0.945. The relative viability in assay [2] (first compound 2.53 µM) is 0.899; in assay [2] (first compound 8 µM), 1.14; with AT-7519 + Pemetrexed (first compound 0.01 µM), 0.461; with AT-7519 + Pemetrexed (first compound 0.03162 µM), 0.476; with AT-7519 + Pemetrexed (first compound 0.3162 µM), 0.437; with AT-7519 + Pemetrexed (first compound 1 µM), 0.401.
Turning to LK-2, the relative viability in assay [1] (0.08 µM) worked out at 1.05; in assay [1] (0.253 µM), 0.973; in assay [1] (0.8 µM), 0.876; in assay [1] (2.53 µM) it was 0.911; in assay [1] (8 µM), 0.797; in the assay with AT-7519 (0.01 µM), 0.961. For the same cell line, the relative viability was found to be 0.934 with AT-7519 (0.03162 µM); 0.857 in the assay with AT-7519 (0.3162 µM); 0.682 with AT-7519 (1 µM); 1.12 in assay [2] (first compound 0.08 µM); 1.1 in assay [2] (first compound 0.253 µM); 1.12 in assay [2] (first compound 0.8 µM). The relative viability came to 1.08 in assay [2] (first compound 2.53 µM); 0.935 in assay [2] (first compound 8 µM); 0.305 in the assay with AT-7519 + Pemetrexed (first compound 0.01 µM); 0.259 in the assay with AT-7519 + Pemetrexed (first compound 0.03162 µM); 0.212 with AT-7519 + Pemetrexed (first compound 0.3162 µM); 0.201 in the assay with AT-7519 + Pemetrexed (first compound 1 µM).
Consider LOU-NH91, for which the relative viability came to 0.964 in assay [1] (0.08 µM); 0.978 in assay [1] (0.253 µM); 0.99 in assay [1] (0.8 µM); 0.989 in assay [1] (2.53 µM); 0.948 in assay [1] (8 µM); 0.93 with AT-7519 (0.01 µM). For the same cell line, the relative viability with AT-7519 (0.03162 µM) is 0.963; with AT-7519 (0.3162 µM) it was 0.956; with AT-7519 (1 µM) it was 0.933; in assay [2] (first compound 0.08 µM) it was 0.783; in assay [2] (first compound 0.253 µM) it was 0.744; in assay [2] (first compound 0.8 µM), 0.703. The relative viability stood at 0.761 in assay [2] (first compound 2.53 µM); 0.675 in assay [2] (first compound 8 µM); 0.306 with AT-7519 + Pemetrexed (first compound 0.01 µM); 0.359 in the assay with AT-7519 + Pemetrexed (first compound 0.03162 µM); 0.385 with AT-7519 + Pemetrexed (first compound 0.3162 µM); 0.506 in the assay with AT-7519 + Pemetrexed (first compound 1 µM).
